Biological target: T1, LgtD protein (Haemophilus influenzae, UniProt Q57287)
T1 construct: made in house; host or cells: strain overexpressing lgtD; E. coli K12 derivative is inferred from the lgtD strains described, e.g. TA21 with pACT3-lgtD; used as crude extract
Test: enzymatic assays with crude extracts from a strain overexpressing the lgtD gene (donor Km with globotriose or globotetraose as acceptor)
Assay type: biochemical

T1 sequence (Q57287 whole entry): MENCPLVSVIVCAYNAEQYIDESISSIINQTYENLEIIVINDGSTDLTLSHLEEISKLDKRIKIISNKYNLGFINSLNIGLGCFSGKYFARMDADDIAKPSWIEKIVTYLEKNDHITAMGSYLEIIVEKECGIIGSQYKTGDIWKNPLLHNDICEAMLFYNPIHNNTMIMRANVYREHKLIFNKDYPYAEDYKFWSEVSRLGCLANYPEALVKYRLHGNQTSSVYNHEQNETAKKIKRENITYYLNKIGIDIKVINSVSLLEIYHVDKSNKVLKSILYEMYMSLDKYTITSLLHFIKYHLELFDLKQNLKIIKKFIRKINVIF

Q: Which results are given for `CC(=O)N[C@H]1[C@@H](OP(=O)(O)OP(=O)(O)OC[C@H]2O[C@@H](n3ccc(=O)[nH]c3=O)[C@H](O)[C@@H]2O)O[C@H](CO)[C@H](O)[C@@H]1O` [UDP-GalNAc]?
A: Km for UDP-GalNAc, fold lower than for UDP-Gal (globotriose as the acceptor): 6 fold; fold increase in the Km for UDP-GalNAc (replacement of globotriose by globotetraose as the acceptor): 20 fold
